Reference: patent US9226937B2 (priority 2011, dated 2016)

What was measured:
rhabdomyosarcoma cells = settings: low dosage; cited from earlier work
fibrosarcoma cells = settings: cited from earlier work
injected tumors = settings: mice with injected tumors; cited from earlier work
cardiac stem cells = settings: rats, cited from earlier work
SIRT1 = target: T1, SIRT1 (Homo sapiens, UniProt Q96EB6); assay: SIRT1 Fluorescent Activity Assay/Drug Discovery Kit AK-555; type: biochemical; settings: stored under ambient conditions
T1 construct: purchased Biomol Research Laboratories, Inc. AK-555
T1 sequence (Q96EB6 1-747): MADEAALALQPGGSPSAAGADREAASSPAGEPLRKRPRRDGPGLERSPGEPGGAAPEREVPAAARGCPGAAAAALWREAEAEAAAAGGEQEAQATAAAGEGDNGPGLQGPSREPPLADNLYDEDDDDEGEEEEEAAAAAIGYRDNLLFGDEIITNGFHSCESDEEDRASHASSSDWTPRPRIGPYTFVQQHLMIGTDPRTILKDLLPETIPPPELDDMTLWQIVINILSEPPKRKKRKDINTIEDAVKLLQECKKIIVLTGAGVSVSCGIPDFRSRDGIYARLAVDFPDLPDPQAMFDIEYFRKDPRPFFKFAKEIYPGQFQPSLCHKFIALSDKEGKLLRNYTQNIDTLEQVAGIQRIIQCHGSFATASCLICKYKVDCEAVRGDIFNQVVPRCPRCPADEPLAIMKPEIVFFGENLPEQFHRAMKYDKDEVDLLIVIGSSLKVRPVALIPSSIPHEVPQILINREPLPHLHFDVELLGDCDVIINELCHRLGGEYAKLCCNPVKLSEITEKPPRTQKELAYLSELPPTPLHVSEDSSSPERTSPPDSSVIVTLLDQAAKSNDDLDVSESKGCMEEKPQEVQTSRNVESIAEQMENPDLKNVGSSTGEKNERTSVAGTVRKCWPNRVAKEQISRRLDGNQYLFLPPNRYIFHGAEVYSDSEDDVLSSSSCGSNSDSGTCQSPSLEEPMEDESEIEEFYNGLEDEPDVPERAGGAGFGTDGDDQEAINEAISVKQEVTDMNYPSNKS
Source text: Small molecules in the form of resveratrol were obtained via ethanol extraction from Vitis vinifera and Polygonum cuspidatum. […] The extract was kept in a nitrogen environment and added to a mixture including approximately 25% by weight quercetin; 33% by weight lecithin; and 9% phytic acid (in the form of rice bran extract). […] The resulting slurry was placed into a capsule-filling machine. Individual dosages were encapsulated in gelatin capsules tinted with titanium oxide (Licaps® capsules available from Capsugel; Greenwood, S.C.; www.capsugel.com). The dosages were encapsulated in a substantially oxygen-free environment using a capsule-filling machine continually flushed with nitrogen (the Capsugel CFS 1000 Capsule Filling and Sealing Machine, available from Capsugel; Greenwood, S.C.; www.capsugel.com). […] These capsule samples were stored under ambient conditions for approximately eight months. The samples were tested for biological activity by determining whether each sample could activate sirtuin enzymes and, in particular, whether the samples stimulated SIRT1 catalytic activity. The samples were tested four months and eight months after encapsulation. Tests were performed using a SIRT1 Fluorescent Activity Assay/Drug Discovery Kit AK-555 (available from Biomol® Research Laboratories, Inc.; Plymouth Meeting, Pa.; www.biomol.com).

O=P(O)(O)O[C@H]1[C@H](OP(=O)(O)O)[C@@H](OP(=O)(O)O)[C@H](OP(=O)(O)O)[C@@H](OP(=O)(O)O)[C@H]1OP(=O)(O)O [IP6, (2,3,4,5,6-pentaphosphonooxycyclohexyl)dihydrogen phosphate]
suppression of growth of rhabdomyosarcoma cells (rhabdomyosarcoma cells): 50% | survival of mice with injected fibrosarcoma cells (fibrosarcoma cells): prolong their survival | growth of injected fibrosarcoma cells (fibrosarcoma cells; mice): reduce the growth | tumor size versus non-treated mice (injected tumors): 50 times smaller

Oc1ccc(/C=C/c2cc(O)cc(O)c2)cc1 [resveratrol, 3,4′,5-trihydroxy-trans-stilbene]
cardiac functional parameters (left ventricular ejection fraction, fractional shortening) (cardiac stem cells; low dose (2.5 mg per kilogram) for two weeks prior to injection of cardiac stem cells): significantly improved | stem cell survival and proliferation (cardiac stem cells; low dose for two weeks prior to injection of cardiac stem cells): enhanced stem cell survival and proliferation

O=c1c(O)c(-c2ccc(O)c(O)c2)oc2cc(O)cc(O)c12 [quercetin]
biological activity of encapsulated quercetin (ability to stimulate SIRT1 activity compared to when no quercetin is present) (SIRT1): maintained biological activity
